Each compound was assayed against α-glucosidase (Saccharomyces cerevisiae, UniProt P53341) (assay: α-Glucosidase inhibitory assay). Settings: in vitro.
Type: biochemical
Experimental: Alpha-glucosidase is an enzyme that hydrolyzes the carbohydrates to monosaccharides in the final step of carbohydrate digestion. […] In order to search for bioactive substances to treat type 2 diabetes using Diaphragma juglandis Fructus, all isolated constituents (1–37) were assessed for antidiabetic activity using an in vitro α-glycosidase inhibition assay.
The α-glucosidase was obtained from Sigma-Aldrich (Shanghai) Trading Co., Ltd (Shanghai, China). p-nitrophenyl-α-D-glucopyranoside was obtained from Macklin Co., Ltd. (Lot# C12592180, Shanghai, China).
The α-glucosidase inhibition assay was performed according to a previous report with a slight difference: the concentration of α-glucosidase was diluted to 0.15 unit/mL. The volume of α-glucosidase added to the 96-well plate was 10 μL.

α-glucosidase, sequence (P53341 whole entry): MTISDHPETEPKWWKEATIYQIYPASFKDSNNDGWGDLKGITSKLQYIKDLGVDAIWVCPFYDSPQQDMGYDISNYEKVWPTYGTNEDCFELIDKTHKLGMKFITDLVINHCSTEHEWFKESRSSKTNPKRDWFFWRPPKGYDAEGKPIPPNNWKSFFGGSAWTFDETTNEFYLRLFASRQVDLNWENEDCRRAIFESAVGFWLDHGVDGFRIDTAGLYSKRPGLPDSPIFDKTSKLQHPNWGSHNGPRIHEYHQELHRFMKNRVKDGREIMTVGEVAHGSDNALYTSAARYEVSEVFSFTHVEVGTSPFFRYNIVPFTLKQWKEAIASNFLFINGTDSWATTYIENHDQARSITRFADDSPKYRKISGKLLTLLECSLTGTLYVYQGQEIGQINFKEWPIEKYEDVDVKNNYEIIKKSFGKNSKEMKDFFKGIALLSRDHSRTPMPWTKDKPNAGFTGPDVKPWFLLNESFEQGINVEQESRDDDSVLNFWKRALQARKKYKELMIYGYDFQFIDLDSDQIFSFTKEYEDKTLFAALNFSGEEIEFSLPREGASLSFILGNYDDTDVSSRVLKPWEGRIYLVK

Compound | α-glucosidase inhibition activity (in words)
O=C1c2c(O)cc(O)cc2OC(c2ccc(O)c(O)c2)C1O (stereo not shown) [Compound 13, taxifolin] | quite potent
Oc1cc(O)c2c(c1)O[C@@H](c1ccc(O)c(O)c1)[C@H](O)C2 [Compound 16, (+)-catechin] | quite potent
O=c1c(O)c(-c2ccc(O)c(O)c2)oc2cc(O)cc(O)c12 [Compound 21, quercetin] | quite potent
O=c1cc(-c2ccc(O)c(O)c2)oc2cc(O)cc(O)c12 [Compound 28, luteolin] | quite potent

Source: publication PMC9143591, “The Chemical Constituents of Diaphragma Juglandis Fructus and Their Inhibitory Effect on α-Glucosidase Activity” (Molecules, 2022)
